Read-outs that look alike come from different tables or passages of the source.
Tests used:
[1] = target: T1, 1,3-dicarbonyl-dioxygenase (Acinetobacter johnsonii, UniProt Q8GNT2); format: biochemical
[2] = target: T1, 1,3-dicarbonyl-dioxygenase; format: biochemical; remark: listed apart in the source
Protocol: The freshly prepared solutions of the respecitive inhibitors in buffer were added to partially purified enzyme, which then was incubated at room temperature.
The freshly prepared solutions of the respective inhibitors in buffer were added to partially purified enzyme, which then was incubated at room temperature. […] For reactivation, purified enzyme, which had previously been inactivated by incubation with o-phenantroline (1 mM), was incubated with Tris-buffer (20 mM, pH 7.5) containing the respective metal-salts (5 mM).

[3] = target: T1, 1,3-dicarbonyl-dioxygenase; assay: Products of various substrates determined by HPLC (cleavage stoichiometry, partially purified enzyme); format: biochemical; details: 25° C., one hour; for Substrate % (remaining): remaining substrate calculated; for Acetate % / Methylglyoxal %: oxygen saturated buffer
Source text: The products of the enzyme reaction were identified directly from the reaction mixture by in situ ^1H-NMR-spectroscopy (Pokorny, D., L. Brecker, M. Pogorevc, H. Griengl, W. Steiner, T. Kappe, and D. W. Ribbons. 1999. Proton-Nuclear Magnetic Resonance Analyses of the Substrate Specificity of a β-Ketolase from Pseudomonas putida, Acetopyruvate Hydrolase. J. Bacteriol. 181: 5051-5059.). Therefore a 200 MHz narrow bore magnet (Varian Gemini™ 2000, Varian, Inc., Palo Alto, Calif.) and a 5 mm broadband probe head were used. The NMR tube was rotated at 20 rps. For a lock a D2O vortex capillary was added to avoid ^1H/D exchange reactions. The overwhelming water-signal was suppressed with a presaturation method (Guéron, M., P. Plateau and M. Decorps. 1991. Solvent signal suppression in NMR. Prog. NMR Spectrosc. 23: 135-209. Hore, J. P. 1989. Solvent suppression. p. 64. In N. J. Oppenheimer and J. T. James (eds.), Methods Enzymol. 176. Academic Press, Inc., San Diego.). The following parameters were adjusted for a ^1H-frequency of 200 MHz: presaturation-duration of 1.0 s, ^1H-pulse-angle of 90, an acquisition-time of 2.0 s and a relaxation delay of 1.5 s. 64 Scans were accumulated and after a zero filling to 32 k datapoints the free induction decay was Fourier transformed. The water signal (4.70 ppm) was used as a reference. For standard reaction analytics HPLC-measurements were performed (Hewlett-Packard, column: Aminex-HPX-87H, UV- and RI-detector, eluent Sulfuric acid 0.005 M).
The cleavage-stoichiometry of several non-symmetrical substrates was also investigated, in order to be able to determine the regiospecificity of the enzyme. This was done by conversion of the respective substrate with partially purified enzyme. Methylglyoxal and acetate formed were measured by HPLC. Remaining substrate was calculated.

[4] = target: wild-type 1,3-dicarbonyl-dioxygenase (Acinetobacter johnsonii, UniProt Q8GNT2); assay: Relative activity of wild-type enzyme at non-limiting substrate concentrations; format: biochemical
Protocol: (§1) The reaction rates were determined by using the microcomputer regression program provided with the spectrophotometer (Winspec) based on the first ten absorbance measurements made at 5-s intervals.
(§2) Oxygen consumption during the enzyme reaction was measured with an oxygen-electrode-cell (Digital Oxygen System Model 10, Rank Brothers Ltd., Cambridge, England) as described previously (Beechey, R. B. and Ribbons, D. W. (1971). ‘Methods in Microbiology’.V. 6B. Edited by J. R. Norris and D. W. Ribbons. Academic press, London. ‘Oxygen electrode measurements’ (Chapter II) pp. 29-52.). The reaction mixture contained air-saturated KH2PO4-buffer, 50 mM, pH 7.5 at 25° C. (thermostat). The oxygen-electrode was calibrated by the sodium-sulfite-method. Varying concentrations of substrate (0.01-0.3 mM) were added and the resulting decrease of oxygen was determined.

[5] = target: T2, recombinant 1,3-dicarbonyl-dioxygenase (expressed in E.coli) (Acinetobacter johnsonii, UniProt Q8GNT2); assay: Relative activity of recombinant protein at non-limiting substrate concentrations; format: biochemical
T2 construct: made in house; host or cells: E. coli XL1 Blue, plasmid pMS470 (tac promoter, NdeI/HindIII)
Protocol: Expression constructs were expressed in E.coli XL1 Blue (Stratagene, La Jolla, Calif.), which was grown to an OD of 1 at 30° C. on rotatory shakers in erlenmeyer flasks, then induced with IPTG (0.3 mM) and incubated for another 5 hours.
as §1, §2

[6] = target: T1, 1,3-dicarbonyl-dioxygenase; assay: Substrate spectrum / apparent kinetic constants of purified 1,3-dicarbonyl-dioxygenase (UV assay and oxygen electrode); details: for KO2: polarographic, estimated from rate of oxygen depletion, substrate 0.5-1 mM; for O2/Substrate: oxygen consumed per substrate, oxygen electrode
Protocol: as §1
Substrates were dissolved at a concentration of 0.001-1 mM in KH2PO4-buffer, 50 mM, pH 7.5 using a 10 mM stock solution. Duplicate absorption-measurements of 20 different dilutions were performed at 25° C. The molar absorption coefficients were calculated by linear regression.
as §2
Assuming the Michaelis-Menten-equation, Vmax and Ks values were calculated by non-linear curve-fit by the program microcal-origin. KO2 was estimated by polarographic methods, adding non limiting amounts of substrate (0.5-1 mM) and graphically determining the oxygen concentration at the point of half of the maximum activity. Ks-values were similarly confirmed by polarographic methods, by stepwise addition of substrate to a final concentration of 20-150 μM.

[7] = target: T1, 1,3-dicarbonyl-dioxygenase; assay: Determination of enzyme-activity and stability versus pH and additives; format: physicochemical; details: glycerol 10%, glucose 12.5%, ascorbate 1 mM, bovine serum albumin 1-20 mg/mL, dithiothreitol 1 mM, mercaptoethanol 1 mM
Protocol: Activity measurements were performed with the oxygen-electrode, with KH2PO4-buffers adjusted to various pH-values [5.0-9.0]. For stability measurements, the enzyme was diluted ten-fold and incubated at various pH-values [5.0-9.0]. The activity was measured periodically with the UV-activity-assay.

[8] = apparent, relative to acetylacetone = 1.00, purified wild-type enzyme
[9] = inhibitor 2.5 mM, 2 min incubation, 0.5 mM acetylacetone, pH 7.5
[10] = inhibitor 2.5 mM, 10 min incubation, 0.5 mM acetylacetone, pH 7.5

T2 sequence (Q8GNT2 whole entry): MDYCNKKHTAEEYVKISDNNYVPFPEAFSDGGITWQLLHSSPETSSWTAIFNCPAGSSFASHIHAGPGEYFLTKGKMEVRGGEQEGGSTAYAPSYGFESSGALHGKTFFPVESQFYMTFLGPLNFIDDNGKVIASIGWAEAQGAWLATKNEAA
wild-type 1,3-dicarbonyl-dioxygenase, sequence (Q8GNT2 whole entry): as above
T1 sequence (Q8GNT2 whole entry): as above

## CoCl2
[1]
  Relative activity [%] 2 min (reactivation): 0%
  Relative activity [%] 10 min (reactivation): 0%

## O=C(O)CI [Iodo-acetic-acid]
[2]; pH 7.5
  Relative activity [%] 2 min: 100%
  Relative activity [%] 10 min: 72%

## CC(=O)C(C)C(C)=O [3-Methylpentandion, 3-Methylpentanedione]
[3]; substrate 4 mM
  Substrate % (remaining): 18%
  Acetate %: 82%
[4]
  Vmax wild-type: 0.83
[5]
  Vmax clone: 0.85
[6]
  acceptance as substrate (in words): quite good reaction rated
  O2/Substrate: 1.0
[6]; [8]
  Vmaxrel.: 0.25
[6]; apparent
  KO2: 40 ± 8 µM

## COC(C)=CC(C)=O [4-Methoxy-3-penten-2-one]
[6]
  Vmaxrel.: 0.00
  acceptance as substrate (in words): not accepted

## OO [H2O2]
[2]
  Relative activity [%] 2 min: 0%
  Relative activity [%] 10 min: 0%
  inactivation of the enzyme (in words): complete inactivation

## CCOC(=O)C(=O)CC(C)=O [2,4-Dioxo-pentanoic-acid-ethyl-ester]
[4]
  Vmax wild-type: 0.10
[5]
  Vmax clone: 0.08
[6]; [8]
  Vmaxrel.: 0.09
[6]; apparent
  KO2: 91 ± 15 µM
[6]
  O2/Substrate: 1.0

## [N-]=[N+]=[N-].[Na+] [NaN3]
[2]; pH 7.5
  Relative activity [%] 2 min: 54%
  Relative activity [%] 10 min: 38%

## c1cnc2c(c1)ccc1cccnc12 [o-Phenantroline]
[2]
  Relative activity [%] 2 min: 38%
  Relative activity [%] 10 min: 10%

## OCC(O)CO [glycerol]
[7]
  effect of potential stabilizing agent on enzyme stability: did not enhance stability

## CCCCCC(=O)CC(C)=O [2,4-Nonanedione]
[3]; substrate 4 mM
  Methylglyoxal/Acetate: 1.4
  Substrate % (remaining): 17%
  Acetate %: 35%
  Methylglyoxal %: 48%
[4]
  Vmax wild-type: 0.30
[5]
  Vmax clone: 0.25
[6]; [8]
  Vmaxrel.: 0.56
[6]; apparent
  KO2: 112 ± 15 µM
[6]
  O2/Substrate: 1.0

## O=C(O)c1cc[c]([Hg][OH])cc1 [p-Hydroxymercurybenzoic acid]
[2]; pH 7.5
  Relative activity [%] 2 min: 56%
  Relative activity [%] 10 min: 45%

## CC(=O)C1CCCC1=O (centres unmarked) [2-Acetocyclopentanone]
[3]; substrate 4 mM
  Acetate %: 90%
[4]
  Vmax wild-type: 0.31
[5]
  Vmax clone: 0.43
[6]
  acceptance as substrate (in words): quite good reaction rated
  O2/Substrate: 1.0
[6]; [8]
  Vmaxrel.: 0.52
[6]; apparent
  KO2: 15 ± 5 µM

## CCN=C=NCCCN(C)C [EDAC, 1-Ethyl-3-(3-dimethylaminopropyl)-carbodimide]
[2]; [9]
  Relative activity [%] 2 min: 100%
[2]; [10]
  Relative activity [%] 10 min: 95%

## O=S(=O)([O-])[O-].[Zn+2] [ZnSO4]
[1]
  Relative activity [%] 2 min (reactivation): 0%
  Relative activity [%] 10 min (reactivation): 0%

## Cc1cccc(O)c1O [methylcatechol]
[6]
  acceptance as substrate (in words): does not accept

## CC(=O)CC(=O)C(=O)O [2,4-Dioxo-pentanoic acid]
[6]
  Vmaxrel.: 0.00
  acceptance as substrate (in words): not cleaved

## CCCCC(=O)CC(C)=O [2,4-Octandion, 2,4-Octanedione]
[3]; substrate 4 mM
  Methylglyoxal/Acetate: 0.5
  Substrate % (remaining): 18%
  Acetate %: 55%
  Methylglyoxal %: 27%
[4]
  Vmax wild-type: 0.50
[5]
  Vmax clone: 0.60
[6]; [8]
  Vmaxrel.: 0.58
[6]; apparent
  KO2: 85 ± 15 µM
[6]
  O2/Substrate: 1.0

## CC(=O)C(C)(C)C(C)=O [3,3-Dimethylpentanedione]
[6]
  Vmaxrel.: 0.00

## Oc1ccccc1O [catechol]
[6]
  acceptance as substrate (in words): does not accept

## CC(=O)CC(=O)c1ccccc1 [1-Phenyl-1,3-butandion, 1-Phenyl-1,3-butanedione]
[3]; substrate 1.6 mM
  Methylglyoxal/Acetate: 9
  Substrate % (remaining): 24%
  Acetate %: 8%
  Methylglyoxal %: 68%
[4]
  Vmax wild-type: 0.05
[5]
  Vmax clone: 0.08
[6]; [8]
  Vmaxrel.: 0.15
[6]; apparent
  KO2: 100 ± 15 µM
[6]
  O2/Substrate: 1.0

## CC(=O)CC(=O)C(C)(C)C [5,5-Dimethylhexan-2,4-dion, 5,5-Dimethylhexane-2,4-dione]
[3]; substrate 4 mM
  Methylglyoxal/Acetate: 3.3
  Substrate % (remaining): 9%
  Acetate %: 21%
  Methylglyoxal %: 70%
[4]
  Vmax wild-type: 0.05
[5]
  Vmax clone: 0.08
[6]
  acceptance as substrate (in words): cleaved at significantly lower rates
  O2/Substrate: 0.9
[6]; [8]
  Vmaxrel.: 0.25
[6]; apparent
  KO2: 70 ± 15 µM

## O=C1CCCC(=O)C1 [1,3-Cyclohexanedione]
[6]
  Vmaxrel.: 0.00
  acceptance as substrate (in words): not accepted as a substrate

## [Cl][Ni][Cl] [NiCl2]
[1]
  Relative activity [%] 2 min (reactivation): 0%
  Relative activity [%] 10 min (reactivation): 0%

## O=S(=O)([O-])[O-].[Fe+2] [FeSO4]
[1]
  Relative activity [%] 2 min (reactivation): 14%
  Relative activity [%] 10 min (reactivation): 33%
  restoration of enzyme-activity (in words): partially restores the enzyme-activity

## O=S(=O)([O-])[O-].[Mn+2] [MnSO4]
[1]
  Relative activity [%] 2 min (reactivation): 0%
  Relative activity [%] 10 min (reactivation): 0%

## O=C(O)c1cc(SSc2ccc([N+](=O)[O-])c(C(=O)O)c2)ccc1[N+](=O)[O-] [DTNB, ‘5’-Dithio-bis-(2-dinitrobenzoic acid)]
[2]; [9]
  Relative activity [%] 2 min: 88%
[2]; [10]
  Relative activity [%] 10 min: 85%

## CC(=O)C1CCCCC1=O (centres unmarked) [2-Acetocyclohexanone]
[4]
  Vmax wild-type: 0.56
[5]
  Vmax clone: 0.48
[6]
  acceptance as substrate (in words): quite good reaction rated
  O2/Substrate: 0.9
[6]; [8]
  Vmaxrel.: 0.58
[6]; apparent
  KO2: 21 ± 5 µM

## O=C1CCC(=O)O1 [Succinic anhydride]
[2]; [9]
  Relative activity [%] 2 min: 62%
[2]; [10]
  Relative activity [%] 10 min: 23%

## O=C(O)CN(CCN(CC(=O)O)CC(=O)O)CC(=O)O [EDTA]
[2]
  Relative activity [%] 2 min: 85%
  Relative activity [%] 10 min: 36%

## CC(=O)c1ccccc1O [(2-Hydroxyphenyl-)-ethan-1-one]
[6]
  Vmaxrel.: 0.00

## [Cl][Fe]([Cl])[Cl] [FeCl3]
[1]
  Relative activity [%] 2 min (reactivation): 0%
  Relative activity [%] 10 min (reactivation): 0%

## [Cl][Cu][Cl] [CuCl2]
[1]
  Relative activity [%] 2 min (reactivation): 0%
  Relative activity [%] 10 min (reactivation): 0%

## CCOC(=O)OC(=O)OCC [Diethyl-pyrocarbonate]
[2]; [9]
  Relative activity [%] 2 min: 18%
[2]; [10]
  Relative activity [%] 10 min: 12%
